Results reported in US20030082135A1, “Pathway of RANTES-mediated chemokine synthesis in astrocytes and methods of use therefor” (priority 2001, published 2003).
“Also recorded” adds a separate entry of the source. Where two headings read alike, the source gives them in different places. Where no end group is shown, it is not given here.

How the values were obtained:
[1] = system: primary neonatal mouse astrocyte cultures; assay: RNase protection assay (RPA) for chemokine/cytokine transcripts in astrocyte cultures; assay type: cell-based; settings: for expression of transcripts for MIP-1α: PKA inhibitors alone, 3 h; for expression of TNF-α, RANTES, KC, MIP-1α, MIP-2, and MCP-1 transcripts: BALB/cJ neonatal astrocytes, chemokine for 6 h
Method: Astrocyte isolation and culture. […] RNA isolation and RNase protection assay (RPA). […] RNase protection assays (RPA) for chemokine message were conducted with multi-probe templates according to the manufacture's protocol (RiboQuant assay kit, BD-PharMingen, San Diego, Calif.). Gels were scanned and radioactive bands quantitated using a phosphoimager (Molecular Dynamics, Sunnyvale, Calif.). Levels of uniformly expressed housekeeping genes large ribosomal subunit protein 32-3A (L32) or glyceraldehyde-3-phosphate dehydrogenase (GAPDH), were used for normalization. The value of each chemokine receptor band divided by the value of the indicated housekeeping gene band in the same sample yielded the relative intensity. Normalized receptor expression represents the ratio of the relative intensity following treatment with chemokine versus the relative intensity of medium alone. Treatment with pharmacological inhibitors. Astrocytes were washed and resuspended in serum-and insulin-free complete medium and starved overnight. Cells were treated at 37° C. for 1 h with 100 ng/ml Pertussis toxin (PTx) before addition of RANTES or IL-1. […] The cells were harvested after a 3 h incubation with RANTES; RNA was prepared and assayed by RPA.

[2] = system: MEK, ERK1/2, p90RSK, p38, SAPK/JNK phosphorylation in astrocytes; assay: Western blotting of phosphorylated MAP kinase pathway proteins in astrocyte lysates; assay type: cell-based, mouse; settings: for effect on erk1/2 and RSK phosphorylation induced by H-89: 10-50 μM U0126 or 5 μM SB203580, 10 μM H-89 for 20 min
Method: SDS-PAGE and Western blotting. Astrocytes were treated for the indicated time with media or 100 ng/ml RANTES, eotaxin, or other materials as indicated. Cells (3×10^5 in Examples 1-3, or 2×10^4 in later Examples) were resuspended in 100 μl buffer (50 mM HEPES, pH 7.5, 150 mM NaCl, 2 mM EDTA, 2 mM EGTA, 1% Triton X-100, 50 mM Sodium fluoride, 5 mM Sodium pyrophosphate, 50 mM Sodium β-glycerophosphate, 1 mM Sodium Ortho-vanadate, 1 mM DTT, 1 mM PMSF, 10 μg/ml Leupeptin, and 10 μg/ml Aprotinin). Protein concentration of the whole cell extract was determined by BCA protein assay kit (Pierce, Rockford, Ill.). Samples (10 μg) were loaded and separated on a 10% SDS-polyacrylamide gel. After transfer to Hybond ECL nitrocellulose membrane (Amersham Pharmacia Biotech Inc, Piscataway, N.J.) or Zeta-probe blotting membranes (Bio-Rad, Richmond Calif.) blots were blocked overnight with 5% BSA at 4° C., and probed with the antibody indicated. Antibody against unphosphorylated or phosphorylated erk (Cell Signaling, Beverly, Mass.) was used at 1 μg/ml. Appropriate anti-immunoglobulin reagents were used to develop the blots by enhanced chemiluminescence (Amersham Pharmacia Biotech Inc, Piscataway, N.J.).
Little is known about the signaling mechanisms involved in astrocyte respones to chemokines. To examine components of the RANTES signal transduction pathway, phosphorylation of the MAP kinase kinase (MEK) and mitogen activated protein (MAP) kinases was examined. To minimize basal kinase activity, astrocytes were starved of serum for at least 3 h before treatment with chemokine. Whole cell lysates were separated by SDS-PAGE and examined by Western blot. Antibodies that specifically react with phosphorylated MEK or phosphorylated extracellular signal-related kinase (ERK) were used to detect the active kinases.

murine KC promoter = assay: KC promoter luciferase reporter in transfected astrocytes; assay type: cell-based, mouse; settings: U0126 indicated amounts or 5 μM SB203580 plus 100 ng/ml RANTES, 24 h
Description: Plasmids, transient transfection, and luciferase activity assay. The KC reporter plasmid was constructed by using a luciferase reporter gene pGL-3 basic vector (Promega, Madison, Wis.) driven by mouse KC promoter (−2878/+43). Wild-type p90RSK expression (WT pKH3) and dominant negative p90RSK expression (ΔΔ RSK pKH3) plasmids were obtained from Dr. John Blenis, Harvard Medical School. Astrocytes were transiently transfected with Lipofectamine 2000 reagent (Life Technologies, Gaithersburg, Md.) according to the manufacturer's protocol. After 24 h, the cells were stimulated with RANTES in absence or presence of the indicated inhibitor, and luciferase activity was determined after an additional 24 h, by the procedure according to the manufacturer (Promega, Madison, Wis.). Relative luciferase activity was normalized for cell lysate protein concentration as determined by BCA protein assay kit (Pierce, Rockford, Ill.). The Relative Fold Induction is the relative intensity of the experimental sample divided by the relative intensity of the medium control.
To establish whether RANTES up-regulation of chemokine production is mediated by activation of promoter elements, primary astrocyte cultures were transiently transfected with a murine KC promoter-luciferase construct, and reporter activity was monitored after RANTES treatment.

PKA = PKA activity assay on lysates of treated astrocytes; assay type: cell-based, mouse
Method: PKA activity assay. PKA activity was determined using a commercially available kit (Calbiochem, San Diego, Calif.) according to manufacturer's recommendations. Primary mouse astrocytes were grown in 6-well plates and then stimulated as described and lysed in 100 μl buffer (same buffer used for Western blotting) for 30 min. Five μl of the lysates were incubated with 20 μl PKA reaction mixture at 30° C. for 30 min. The reaction was terminated by adding 10 μl stop solution and ^32P radioactivity was counted.

[3] = system: CXCR4, CX3CR1, CCR1, CCR5 transcripts in astrocytes; assay: RPA for chemokine receptor transcripts in astrocytes; assay type: cell-based, mouse
Method: RNA isolation and RNase protection assay (RPA). RNA was prepared as in Luo, Y., et al. 1999. J Immunol 163:3985. RNase protection assays (RPA) for chemokine message were conducted with multi-probe templates according to the manufacture's protocol (RiboQuant assay kit, BD-PharMingen, San Diego, Calif.). Gels were scanned and radioactive bands quantitated using a phosphoimager (Molecular Dynamics, Sunnyvale, Calif.). Levels of uniformly expressed housekeeping genes large ribosomal subunit protein 32-3A (L32) or glyceraldehyde-3-phosphate dehydrogenase (GAPDH), were used for normalization. The value of each chemokine receptor band divided by the value of the indicated housekeeping gene band in the same sample yielded the relative intensity. Normalized receptor expression represents the ratio of the relative intensity following treatment with chemokine versus the relative intensity of medium alone.
Treatment with the RANTES-related chemokines RANTES or eotaxin, or with TNF-α also found to down-regulate expression of CX3CR1 transcripts. In addition, CXCR4 mRNA levels were decreased, while the levels of CCR1 transcripts were elevated. In contrast, little or no regulation of CCR5 was noted. The pooled results of 3-4 experiments indicate eotaxin caused an average 60% decrease in CXCR4 (P less than 0.01) and a 70% decrease in CX3CR1 mRNA (P less than 0.02) (FIG. 8.B). The effects of RANTES stimulation were similar with an average 70 and 90% reduction in CXCR4 and CX3CR1 transcripts, respectively (P less than 0.01).

[4] = system: intracellular cAMP in astrocytes; assay: Intracellular cAMP in astrocytes (EIA); assay type: cell-based, mouse; settings: 1 μM forskolin, 1 h
Method: FIG. 8 is a set of bar graphs showing that RANTES reduced intracellular cAMP accumulation in astrocytes. Panel A. Astrocytes were treated with the indicated doses of RANTES or TCA4 for 5 min. Intracellular cAMP was detected as described in Materials and Methods. Values represent the mean±S.E.M of triplicate experiments. Panel B. Kinetics of intracellular cAMP levels. Astrocytes were treated with 100 ng/ml RANTES for indicated times. Panel C. RANTES inhibited forskolin-induced intracellular cAMP accumulation. Astrocytes were pretreated with 1 μM forskolin for 1 h then stimulated with the indicated amount of RANTES for 5 min. Intracellular cAMP was determined by EIA. Values are presented as relative cAMP level and represent the mean±S.E.M. of triplicate experiments.
To further elucidate the RANTES-mediated signaling pathway in astrocytes, intracellular cAMP levels were evaluated following chemokine stimulation. Primary mouse astrocytes were incubated with the indicated dose of RANTES or the negative control chemokine, TCA4 for 5 min and monitored for cAMP levels. RANTES (100 ng/ml) decreased intracellular cAMP levels by 68% in a dose dependent fashion (FIG. 8A).

## N#CC(=C(/N)Sc1ccccc1N)/C(C#N)=C(\N)Sc1ccccc1N [U0126, reference compound]
[1]
  effect on H-89 induced chemokine/cytokine transcription: inhibited; also recorded: blocked
  effect on RANTES-induced chemokine message: blocked induction of chemokine transcripts
  effect on background level of RANTES transcript: failed to diminish
  inhibition of RANTES-induced TNF-α and chemokine transcription: partially inhibited; also recorded: completely inhibited
[2]
  effect on erk1/2 and RSK phosphorylation induced by H-89: blocked
[2]; varying concentrations before 100 ng/ml RANTES, 20 min
  effect on RANTES-induced RSK phosphorylation: block RSK phosphorylation in a dose dependent fashion
Murine KC promoter
  effect on RANTES-induced KC reporter activity: inhibit reporter activity
PKA
  effect on PKA activity: neither U0126 nor Raf-1 inhibitor decreased PKA activity

## O=c1c(-c2ccc(O)cc2)coc2cc(O)cc(O)c12 [Genistein, genistein, reference compound]
[1]; U0126 50 μM, genistein 100 μM, wortmannin 1 μM, added 30 min prior to chemokine, 3 h RANTES
  effect on RANTES-induced chemokine message: block chemokine message

## PKI: protein kinase A inhibitor 14-22 amide (SGRTGRRNA-NH2; UniProt P61925 14-22, looked up, fragment) [reference compound]
[1]
  expression of transcripts for MIP-1α: induced

## TNF-α
[3]
  CX3CR1 and CXCR4 expression: reduced
  change in CCR5 transcripts: little or no change
  increase of CCR1 transcripts: 55%

## MCP-1: recombinant mouse CC-chemokine, purchased from BD-PharMingen
[1]
  expression of TNF-α, RANTES, KC, MIP-1α, MIP-2, and MCP-1 transcripts: no effect
[3]
  modulation of expression of any of the receptor transcripts examined: did not significantly modulate

## SDF-1α
[1]
  expression of TNF-α, RANTES, KC, MIP-1α, MIP-2, and MCP-1 transcripts: no effect

## C=C[C@@]1(C)CC(=O)[C@]2(O)[C@@]3(C)[C@@H](O)CCC(C)(C)[C@@H]3[C@H](O)[C@H](OC(C)=O)[C@@]2(C)O1 [forskolin, reference compound]
[4]
  increase of intracellular cAMP levels: about 4 fold

## CCCC(=O)Nc1ncnc2c1ncn2[C@@H]1O[C@@H]2COP(=O)(O)O[C@H]2[C@H]1OC(=O)CCC [db-cAMP, dibutyryl cAMP, reference compound]
[1]; 500 μM, no RANTES
  effect of cAMP analogue alone on transcription: Neither cAMP analogue alone had any effect
[1]; 500 μM, peaking at 2 h
  effects on KC and MIP-2 transcription: weak and transient
PKA; 1 μM forskolin, 500 μM db-cAMP or 500 μM 8-bromo-cAMP, 1 h
  effect on astrocyte PKA activity: activated

## Nc1ncnc2c1nc(Br)n2C1OC2COP(O)(=S)OC2C1O (stereo not drawn) [Rp-8-bromo-cAMP, reference compound]
[1]
  expression of transcripts for MIP-1α: induced

## CN(C)CCCn1cc(C2=C(c3c[nH]c4ccccc34)C(=O)NC2=O)c2ccccc21 [GF109203, reference compound]
[2]; protein kinase C inhibitor control, 20 min
  MEK phosphorylation: failed to stimulate

## C[S+]([O-])c1ccc(-c2nc(-c3ccncc3)c(-c3ccc(F)cc3)[nH]2)cc1 (stereo not drawn) [SB203580, reference compound]
[1]
  effect on RANTES-mediated transcription of chemokine RNA: failed to modulate
[2]
  effect on erk1/2 and RSK phosphorylation induced by H-89: fail to block
Murine KC promoter
  effect on RANTES-induced KC reporter activity: did not inhibit

## O=S(=O)(NCCNC/C=C/c1ccc(Br)cc1)c1cccc2cnccc12 [H-89, reference compound]
[1]
  expression of transcripts for MIP-1α: induced
[2]; indicated doses, 20 min, no RANTES
  MEK, erk1/2 and RSK phosphorylation: induced

B1: MIP-1α: recombinant mouse CC-chemokine, purchased from R&D System (protein, UniProt P10855 24-92, looked up)
C-C motif chemokine 3: APYGADTPTACCFSYSRKIPRQFIVDYFETSSLCSQPGVIFLTKRNRQICADSKETWVQEYITDLELNA
[1]
  expression of TNF-α, RANTES, KC, MIP-1α, MIP-2, and MCP-1 transcripts: up-regulated

B2: MIP-1β: recombinant mouse CC-chemokine, purchased from R&D System (protein, UniProt P14097 24-92, looked up)
C-C motif chemokine 4: APMGSDPPTSCCFSYTSRQLHRSFVMDYYETSSLCSKPAVVFLTKRGRQICANPSEPWVTEYMSDLELN
[1]
  expression of TNF-α, RANTES, KC, MIP-1α, MIP-2, and MCP-1 transcripts: up-regulated

B3: IL-1: recombinant murine IL-1β, purchased from Invitrogen (protein, UniProt P10749 118-269, looked up)
Interleukin-1 beta: VPIRQLHYRLRDEQQKSLVLSDPYELKALHLNGQNINQQVIFSMSFVQGEPSNDKIPVALGLKGKNLYLSCVMKDGTPTLQLESVDPKQYPKKKMEKRFVFNKIEVKSKVEFESAEFPNWYISTSQAEHKPVFLGNNSGQDIIDFTMESVSS
[2]; 20 ng/ml IL-1β, 20 min
  activation of the three MAP kinases (ERK1/2, SAPK/JNK, p38): activated
